# From patent US20220079876A1, “OCULAR IMPLANT CONTAINING A TYROSINE KINASE INHIBITOR” (Ocular Therapeutix, Inc., priority 2020, published 2022)
# Key:
# [1] = tested on: VEGF-induced vascular leakage; assay: VEGF challenge, vascular leakage scored by fluorescein angiography; assay type: in vivo, Dutch belted rabbits; settings: rabbit; 1.25 mg Avastin intravitreal only (group 3)
# [2] = 1.25 mg intravitreal dose (Sinapis et al., 2011); cited from earlier work
# [3] = in vivo; cited from earlier work
# [4] = Rugo et al. 2005; cited from earlier work
# [5] = In vitro axitinib release under non-sink simulated physiological conditions; assay type: physicochemical; settings: pH 7.2, aqueous buffer, thermodynamic from solid; PBS from control implant release after 20 or 30 days at 37° C.
# Experimental: Three exemplarily selected implant formulations were examined (Table 1). Implant variants #1 and 2 were examined using one implant, implant variant #3 using one and two implants (four conditions in total). All conditions were conducted in duplicate.
# In vitro released and non-released axitinib was determined for each group without (control) and with daily release media sampling.
# For control implant release, samples were placed in tubes. Five mL of PBS (pH 7.2) were added to each tube on day 0 and the tubes were covered with a lid. Samples were then placed in a 37° C. incubator and gently rocked for 20 (1× implant #3) or 30 days (implant #1 and #2, 2× implant #3). At the end of the test period, the PBS was removed (1 mL PBS was saved for testing). One mL of ethanol was added to the residual sample. Both PBS samples and residual samples were tested for axitinib amount released.
# For daily implant release, samples were placed in tubes. Five mL of PBS were added to each tube on day 0 and the tubes were covered with a lid. Samples were then placed in a 37° C. incubator and rocked gently. After 24 hours, 4 mL of PBS were removed from each sample from which 1 mL was used for testing and the remaining 3 mL were disposed. Four mL of fresh PBS were added back into each tube. This process was repeated for 20 (1× implant #3) or 30 days (implant #1 and #2, 2× implant #3). […]
compound,measurement,setting,value
Avastin®: anti-VEGF therapeutic,Duration of effect post injection,[1],≤ 3 months
same,"Vascular leakage after VEGF challenge, after 3 months",[1],vascular leakage re-occurred
same,Half-life in rabbits,[2],158 h
"ranibizumab: anti-VEGF agent, ranibizumab injection by Genentech",t1/2 in the human eye,[3],several days
"aflibercept: anti-VEGF agent, aflibercept injection by Regeneron",t1/2 in the human eye,[3],several days
"CNC(=O)c1ccccc1Sc1ccc2c(/C=C/c3ccccn3)n[nH]c2c1 [axitinib, N-methyl-2-[3-((E)-2-pyridin-2-yl-vinyl)-1H-indazol-6-ylsulfanyl]-benzamide]",Clearance half-life (t1/2),[4],a few hours
same,solubility,[5],0.24 to 0.4 µg/mL
